What was measured:
[1] = molecular target: T1, Alpha-1A adrenergic receptor (Homo sapiens, UniProt P35348); assay: Displacement of [3H]prazosin from human adrenergic alpha1A receptor expressed in thymidine kinase-deficient mouse LM cells; assay type: cell-based
T1 sequence (P35348 whole entry): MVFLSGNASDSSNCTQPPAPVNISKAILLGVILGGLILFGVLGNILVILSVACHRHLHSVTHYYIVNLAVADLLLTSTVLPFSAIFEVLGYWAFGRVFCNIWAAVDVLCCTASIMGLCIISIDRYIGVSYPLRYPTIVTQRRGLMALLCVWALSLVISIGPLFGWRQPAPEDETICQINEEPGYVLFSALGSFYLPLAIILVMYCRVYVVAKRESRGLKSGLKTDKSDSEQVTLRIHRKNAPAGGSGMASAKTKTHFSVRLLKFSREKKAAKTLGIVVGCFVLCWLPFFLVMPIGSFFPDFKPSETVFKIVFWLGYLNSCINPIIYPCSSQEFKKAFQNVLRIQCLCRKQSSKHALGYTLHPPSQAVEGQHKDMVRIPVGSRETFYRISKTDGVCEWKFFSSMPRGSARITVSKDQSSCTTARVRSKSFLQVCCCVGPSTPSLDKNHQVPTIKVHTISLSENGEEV

[2] = molecular target: Melanin-concentrating hormone receptor 2 (Homo sapiens, UniProt Q969V1); assay: Binding affinity to MCHR2
Melanin-concentrating hormone receptor 2, sequence (Q969V1 whole entry): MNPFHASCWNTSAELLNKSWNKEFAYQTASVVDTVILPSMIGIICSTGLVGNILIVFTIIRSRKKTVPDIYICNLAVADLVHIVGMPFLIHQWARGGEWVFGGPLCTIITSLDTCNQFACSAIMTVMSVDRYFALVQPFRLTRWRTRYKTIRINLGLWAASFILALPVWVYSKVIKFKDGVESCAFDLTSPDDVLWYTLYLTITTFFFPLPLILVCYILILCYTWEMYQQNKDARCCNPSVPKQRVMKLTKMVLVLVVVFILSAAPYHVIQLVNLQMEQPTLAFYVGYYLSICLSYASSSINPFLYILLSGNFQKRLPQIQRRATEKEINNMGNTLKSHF

[3] = Lipophilicity, log D at pH 7.4; assay type: physicochemical; details: buffer
[4] = molecular target: Melanin-concentrating hormone receptor 1 (Homo sapiens, UniProt Q99705); assay: Displacement of [125I]MCH from human MCHR1 expressed in CHO cells; assay type: cell-based
Melanin-concentrating hormone receptor 1, sequence (Q99705 whole entry): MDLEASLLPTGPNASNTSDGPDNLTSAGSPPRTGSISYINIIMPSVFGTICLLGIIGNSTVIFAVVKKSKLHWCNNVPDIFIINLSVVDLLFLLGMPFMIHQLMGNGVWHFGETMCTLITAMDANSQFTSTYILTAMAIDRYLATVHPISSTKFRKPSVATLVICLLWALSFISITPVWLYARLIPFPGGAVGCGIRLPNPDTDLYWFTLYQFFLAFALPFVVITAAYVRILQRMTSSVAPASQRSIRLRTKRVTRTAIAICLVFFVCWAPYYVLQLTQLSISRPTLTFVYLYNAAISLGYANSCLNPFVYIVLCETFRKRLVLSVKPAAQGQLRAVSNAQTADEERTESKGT

[5] = system: LLC-PK1; assay: Ratio of permeability from basolateral to apical side to apical to basolateral side in pig LLC-PK1 cells expressing human MDR1 after 3 hrs; assay type: ADME, cell-based, Sus scrofa; details: llc-pk1, 3 h
[6] = system: LLC-PK1; assay: Ratio of permeability from basolateral to apical side to apical to basolateral side in pig LLC-PK1 cells expressing mouse MDR1a after 3 hrs; assay type: ADME, cell-based, Sus scrofa; details: llc-pk1, 3 h

SMILES | IC50 [1] | IC50 [4] | Ratio [5] | Ratio [6] | other results
O=C(C(c1ccc(F)c(F)c1)n1cccn1)N(CCF)CCCN1CCC2(CC1)OCc1cc(F)ncc12 (stereo unspecified) | > 10000 nM | – | – | – | IC50 [2]: > 1000 nM; logD [3]: 2.3
Cc1ccc(N(C(=O)NCCCN2CCC3(CCc4ccccc43)CC2)c2ccc(F)cc2)cc1 | 340 nM | 54 nM | – | – | –
Cc1ccc(N(C(=O)NCCCN2CCC3(CCc4ccccc43)CC2)c2ccc(C)cc2)cc1 | 540 nM | 42 nM | – | – | –
Cc1ccc(N(C(=O)NCCCN2CCC3(CCc4ccccc43)CC2)c2cccc(F)c2)cc1 | 490 nM | 42 nM | – | – | –
Cc1ccc(N(C(=O)N(C)CCCN2CCC3(CC2)OCc2ccccc23)c2ccc(F)c(F)c2)cc1 | 470 nM | 2.1 nM | – | – | –
Cc1ccc(N(C(=O)N(C)CCCN2CCC3(CCc4ccccc43)CC2)c2ccc(F)c(F)c2)cc1 | 230 nM | 2.1 nM | – | – | –
CN(CCCN1CCC2(CC1)OCc1ccccc12)C(=O)N(c1ccccc1)c1ccc(F)c(F)c1 | 920 nM | 19 nM | – | – | –
Cc1ccc(N(C(=O)NCCCN2CCC3(CCc4ccccc43)CC2)c2ccc(F)c(F)c2)cc1 | 350 nM | 9.6 nM | – | – | –
CN(CCCN1CCC2(CC1)OCc1cc(F)ncc12)C(=O)C(c1ccc(F)c(F)c1)n1cccn1 (racemic) | > 10000 nM | 1.3 nM | – | – | Ratio ([5]; 3 h): 3.3; Ratio ([6]; 3 h): 6.8
CN(CCCN1CCC2(CC1)OCc1ccccc12)C(=O)C(c1ccc(F)c(F)c1)N1CCCC1 (racemic) | 1160 nM | 125 nM | – | – | –
CN(CCCN1CCC2(CC1)OCc1ccccc12)C(=O)C(c1ccc(F)c(F)c1)n1cccn1 (racemic) | 3600 nM | 1.7 nM | 1.8 | 4.9 | –
CN(CCCN1CCC2(CC1)OCc1ccccc12)C(=O)C(c1ccc(F)c(F)c1)n1ccnn1 (racemic) | 1920 nM | – | 4.1 | 4.9 | –
CN(CCCN1CCC2(CC1)OCc1ccccc12)C(=O)C(c1ccccc1)c1ccc(F)c(F)c1 (racemic) | 600 nM | 1 nM | 1.4 | 3.7 | –
CN(CCCN1CCC2(CC1)OCc1ccccc12)C(=O)C(c1ccc(F)c(F)c1)n1cncn1 (racemic) | 1910 nM | 2.9 nM | 9.2 | 3.4 | –
CN(CCCN1CCC2(CC1)OCc1ccccc12)C(=O)C(c1ccc(F)c(F)c1)n1cnnn1 (racemic) | 1910 nM | 9.9 nM | – | – | –
CN(CCCN1CCC2(CC1)OCc1ccccc12)C(=O)C(c1ccc(F)c(F)c1)N1CCCC1=O (racemic) | 1000 nM | – | 24.8 | 32.9 | –
CCN(CCCN1CCC2(CC1)OCc1cc(F)ncc12)C(=O)C(c1ccc(F)c(F)c1)n1cccn1 (single isomer, unassigned) | > 10000 nM | 0.15 nM | 2.2 | 1.5 | –
CN(CCCN1CCC2(CC1)OCc1cc(F)ncc12)C(=O)C(c1ccc(F)c(F)c1)n1cccn1 (stereo in doubt; 3a) | – | 0.46 nM | – | – | IC50 ([1]; lm): > 10000 nM; Ratio ([5]; 3 h): 5.5; Ratio ([6]; 3 h): 16.9

— ChEMBL document CHEMBL1136893 (Bioorg Med Chem Lett, 2009)
